Results from the kinase profiling compilation of Christmann-Franck et al. (2016).

The compounds below were run against ABL1 (human) (UniProt P00519) (assay: radiometric filter-binding kinase assay, Kinase HotSpot). Details: compound 0.5 µM; ATP 10 µM.

SMILES	residual activity [%]
COc1cc2ncnc(Nc3ccc(O)c(Br)c3)c2cc1OC	79.4
O=C1NC(=O)c2c1c1c3ccccc3[nH]c1c1[nH]c3cc(Br)ccc3c21	83.3
N/C(=N\N=C/c1ccc(-c2cccc([N+](=O)[O-])c2)o1)N[N+](=O)[O-]	101
CCCCc1c(-c2ccc(O)cc2)[nH]c2nccnc12	79
O=c1c2ccccc2[nH]c(=S)n1CCN1CCC(=C(c2ccc(F)cc2)c2ccc(F)cc2)CC1	106
O=S(=O)(NCCNC/C=C/c1ccc(Br)cc1)c1cccc2cnccc12	101

These compounds were tested against AXL (human) (UniProt P30530) in the same assay as above. Details: compound 0.5 µM; ATP 10 µM.

SMILES	residual activity [%]
COc1cc2ncnc(Nc3ccc(O)c(Br)c3)c2cc1OC	89.4
O=C1NC(=O)c2c1c1c3ccccc3[nH]c1c1[nH]c3cc(Br)ccc3c21	82.9
N/C(=N\N=C/c1ccc(-c2cccc([N+](=O)[O-])c2)o1)N[N+](=O)[O-]	100
CCCCc1c(-c2ccc(O)cc2)[nH]c2nccnc12	103
O=c1c2ccccc2[nH]c(=S)n1CCN1CCC(=C(c2ccc(F)cc2)c2ccc(F)cc2)CC1	91.7
O=S(=O)(NCCNC/C=C/c1ccc(Br)cc1)c1cccc2cnccc12	112

Each compound was assayed against BMX (human) (UniProt P51813) in the same assay as above. Details: compound 0.5 µM; ATP 10 µM.

SMILES	residual activity [%]
COc1cc2ncnc(Nc3ccc(O)c(Br)c3)c2cc1OC	95.3
O=C1NC(=O)c2c1c1c3ccccc3[nH]c1c1[nH]c3cc(Br)ccc3c21	92
N/C(=N\N=C/c1ccc(-c2cccc([N+](=O)[O-])c2)o1)N[N+](=O)[O-]	90.1
CCCCc1c(-c2ccc(O)cc2)[nH]c2nccnc12	86.8
O=c1c2ccccc2[nH]c(=S)n1CCN1CCC(=C(c2ccc(F)cc2)c2ccc(F)cc2)CC1	85.5
O=S(=O)(NCCNC/C=C/c1ccc(Br)cc1)c1cccc2cnccc12	102

Each compound was assayed against BRAF (human) (UniProt P15056) in the same assay as above. Details: compound 0.5 µM; ATP 10 µM.

SMILES	residual activity [%]
CCCCc1c(-c2ccc(O)cc2)[nH]c2nccnc12	99.3
O=S(=O)(NCCNC/C=C/c1ccc(Br)cc1)c1cccc2cnccc12	99.8

What follows are compounds tested against CAMK4 (human) (UniProt Q16566) in the same assay as above. Details: compound 0.5 µM; ATP 10 µM.

SMILES	residual activity [%]
COc1cc2ncnc(Nc3ccc(O)c(Br)c3)c2cc1OC	95.6
O=C1NC(=O)c2c1c1c3ccccc3[nH]c1c1[nH]c3cc(Br)ccc3c21	96.2
N/C(=N\N=C/c1ccc(-c2cccc([N+](=O)[O-])c2)o1)N[N+](=O)[O-]	95.2
CCCCc1c(-c2ccc(O)cc2)[nH]c2nccnc12	93.9
O=c1c2ccccc2[nH]c(=S)n1CCN1CCC(=C(c2ccc(F)cc2)c2ccc(F)cc2)CC1	94.7
O=S(=O)(NCCNC/C=C/c1ccc(Br)cc1)c1cccc2cnccc12	95.2

What follows are compounds tested against CDK2 CCNA2 (human) (UniProt P24941+P20248) in the same assay as above. Details: compound 0.5 µM; ATP 10 µM.

SMILES	residual activity [%]
COc1cc2ncnc(Nc3ccc(O)c(Br)c3)c2cc1OC	88.7
O=C1NC(=O)c2c1c1c3ccccc3[nH]c1c1[nH]c3cc(Br)ccc3c21	52.5
CCCCc1c(-c2ccc(O)cc2)[nH]c2nccnc12	22.4
O=c1c2ccccc2[nH]c(=S)n1CCN1CCC(=C(c2ccc(F)cc2)c2ccc(F)cc2)CC1	99.9
O=S(=O)(NCCNC/C=C/c1ccc(Br)cc1)c1cccc2cnccc12	105

These compounds were tested against CDK9 CCNT1 (human) (UniProt P50750+O60563) in the same assay as above. Details: compound 0.5 µM; ATP 10 µM.
Chain of CDK9 CCNT1 (human) (O60563 whole entry, looked up): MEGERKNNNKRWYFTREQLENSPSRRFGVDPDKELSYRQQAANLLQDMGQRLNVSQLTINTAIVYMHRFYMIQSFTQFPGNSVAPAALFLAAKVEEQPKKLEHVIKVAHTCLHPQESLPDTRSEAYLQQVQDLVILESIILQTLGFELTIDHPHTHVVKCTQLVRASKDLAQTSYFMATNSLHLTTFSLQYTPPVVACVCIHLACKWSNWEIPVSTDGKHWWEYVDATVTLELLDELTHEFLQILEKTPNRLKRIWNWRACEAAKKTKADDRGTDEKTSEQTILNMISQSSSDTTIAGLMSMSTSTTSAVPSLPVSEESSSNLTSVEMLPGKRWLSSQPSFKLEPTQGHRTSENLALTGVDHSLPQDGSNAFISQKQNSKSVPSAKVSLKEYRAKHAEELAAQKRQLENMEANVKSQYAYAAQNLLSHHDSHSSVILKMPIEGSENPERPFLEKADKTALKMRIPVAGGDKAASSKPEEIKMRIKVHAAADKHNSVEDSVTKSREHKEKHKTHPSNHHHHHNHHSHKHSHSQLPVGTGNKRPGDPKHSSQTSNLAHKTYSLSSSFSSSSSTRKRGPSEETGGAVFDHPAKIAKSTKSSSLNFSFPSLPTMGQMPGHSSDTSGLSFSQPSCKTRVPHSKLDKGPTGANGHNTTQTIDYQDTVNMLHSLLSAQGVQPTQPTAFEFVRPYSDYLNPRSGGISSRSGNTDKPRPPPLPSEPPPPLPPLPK
Chain of CDK9 CCNT1 (human) (P50750 whole entry, looked up): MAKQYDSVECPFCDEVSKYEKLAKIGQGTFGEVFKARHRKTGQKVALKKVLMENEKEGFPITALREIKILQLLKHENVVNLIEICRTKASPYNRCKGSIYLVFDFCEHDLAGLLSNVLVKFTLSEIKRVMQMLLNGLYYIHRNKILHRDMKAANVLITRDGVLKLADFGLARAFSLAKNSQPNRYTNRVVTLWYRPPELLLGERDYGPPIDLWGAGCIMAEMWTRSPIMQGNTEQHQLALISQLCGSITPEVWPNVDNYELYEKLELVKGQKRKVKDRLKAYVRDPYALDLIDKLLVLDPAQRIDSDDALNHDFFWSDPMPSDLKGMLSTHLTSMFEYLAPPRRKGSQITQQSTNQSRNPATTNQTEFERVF

SMILES	residual activity [%]
COc1cc2ncnc(Nc3ccc(O)c(Br)c3)c2cc1OC	91.4
O=C1NC(=O)c2c1c1c3ccccc3[nH]c1c1[nH]c3cc(Br)ccc3c21	87.5
N/C(=N\N=C/c1ccc(-c2cccc([N+](=O)[O-])c2)o1)N[N+](=O)[O-]	109
CCCCc1c(-c2ccc(O)cc2)[nH]c2nccnc12	45.9
O=c1c2ccccc2[nH]c(=S)n1CCN1CCC(=C(c2ccc(F)cc2)c2ccc(F)cc2)CC1	102
O=S(=O)(NCCNC/C=C/c1ccc(Br)cc1)c1cccc2cnccc12	87.8

What follows are compounds tested against CHEK1 (human) (UniProt O14757) in the same assay as above. Details: compound 0.5 µM; ATP 10 µM.

SMILES	residual activity [%]
COc1cc2ncnc(Nc3ccc(O)c(Br)c3)c2cc1OC	92.8
O=C1NC(=O)c2c1c1c3ccccc3[nH]c1c1[nH]c3cc(Br)ccc3c21	79.7
CCCCc1c(-c2ccc(O)cc2)[nH]c2nccnc12	92.9
O=c1c2ccccc2[nH]c(=S)n1CCN1CCC(=C(c2ccc(F)cc2)c2ccc(F)cc2)CC1	108
O=S(=O)(NCCNC/C=C/c1ccc(Br)cc1)c1cccc2cnccc12	90.8

These compounds were tested against CHEK2 (human) (UniProt O96017) in the same assay as above. Details: compound 0.5 µM; ATP 10 µM.
Chain of CHEK2 (human) (O96017 whole entry, looked up): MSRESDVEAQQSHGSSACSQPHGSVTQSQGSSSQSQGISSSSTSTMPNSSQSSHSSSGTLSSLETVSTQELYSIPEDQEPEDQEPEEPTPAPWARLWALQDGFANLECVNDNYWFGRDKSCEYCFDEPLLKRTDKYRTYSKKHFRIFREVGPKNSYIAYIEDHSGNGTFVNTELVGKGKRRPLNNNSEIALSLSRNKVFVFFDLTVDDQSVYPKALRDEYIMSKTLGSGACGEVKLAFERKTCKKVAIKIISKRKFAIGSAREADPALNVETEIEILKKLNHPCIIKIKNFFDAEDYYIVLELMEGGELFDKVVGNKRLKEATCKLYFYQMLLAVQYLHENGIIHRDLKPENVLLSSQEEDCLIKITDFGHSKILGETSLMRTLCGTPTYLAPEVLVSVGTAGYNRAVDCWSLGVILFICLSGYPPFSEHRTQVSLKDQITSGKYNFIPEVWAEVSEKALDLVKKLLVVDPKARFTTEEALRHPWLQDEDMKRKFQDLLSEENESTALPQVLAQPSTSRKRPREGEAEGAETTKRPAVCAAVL

SMILES	residual activity [%]
COc1cc2ncnc(Nc3ccc(O)c(Br)c3)c2cc1OC	51
O=C1NC(=O)c2c1c1c3ccccc3[nH]c1c1[nH]c3cc(Br)ccc3c21	37.5
N/C(=N\N=C/c1ccc(-c2cccc([N+](=O)[O-])c2)o1)N[N+](=O)[O-]	104
CCCCc1c(-c2ccc(O)cc2)[nH]c2nccnc12	61.1
O=c1c2ccccc2[nH]c(=S)n1CCN1CCC(=C(c2ccc(F)cc2)c2ccc(F)cc2)CC1	106
O=S(=O)(NCCNC/C=C/c1ccc(Br)cc1)c1cccc2cnccc12	82.8

Each compound was assayed against CLK3 (human) (UniProt P49761) in the same assay as above. Details: compound 0.5 µM; ATP 10 µM.
Chain of CLK3 (human) (P49761 whole entry, looked up): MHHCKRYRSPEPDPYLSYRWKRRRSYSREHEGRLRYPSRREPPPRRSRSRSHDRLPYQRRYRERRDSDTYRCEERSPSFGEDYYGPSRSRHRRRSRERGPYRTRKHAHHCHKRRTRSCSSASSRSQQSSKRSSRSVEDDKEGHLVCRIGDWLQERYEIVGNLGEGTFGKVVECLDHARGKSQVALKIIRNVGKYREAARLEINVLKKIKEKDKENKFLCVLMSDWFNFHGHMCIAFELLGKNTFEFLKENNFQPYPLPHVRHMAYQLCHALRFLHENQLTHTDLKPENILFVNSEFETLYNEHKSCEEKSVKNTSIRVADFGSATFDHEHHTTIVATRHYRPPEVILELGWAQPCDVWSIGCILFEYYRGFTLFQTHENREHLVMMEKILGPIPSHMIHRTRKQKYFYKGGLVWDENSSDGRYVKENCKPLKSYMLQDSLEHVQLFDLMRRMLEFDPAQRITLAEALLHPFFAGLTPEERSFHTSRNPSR

SMILES	residual activity [%]
COc1cc2ncnc(Nc3ccc(O)c(Br)c3)c2cc1OC	54.1
O=C1NC(=O)c2c1c1c3ccccc3[nH]c1c1[nH]c3cc(Br)ccc3c21	93.4
N/C(=N\N=C/c1ccc(-c2cccc([N+](=O)[O-])c2)o1)N[N+](=O)[O-]	97.7
CCCCc1c(-c2ccc(O)cc2)[nH]c2nccnc12	121
O=c1c2ccccc2[nH]c(=S)n1CCN1CCC(=C(c2ccc(F)cc2)c2ccc(F)cc2)CC1	101
O=S(=O)(NCCNC/C=C/c1ccc(Br)cc1)c1cccc2cnccc12	87.6

The compounds below were run against CSK (human) (UniProt P41240) in the same assay as above. Details: compound 0.5 µM; ATP 10 µM.
Chain of CSK (human) (P41240 whole entry, looked up): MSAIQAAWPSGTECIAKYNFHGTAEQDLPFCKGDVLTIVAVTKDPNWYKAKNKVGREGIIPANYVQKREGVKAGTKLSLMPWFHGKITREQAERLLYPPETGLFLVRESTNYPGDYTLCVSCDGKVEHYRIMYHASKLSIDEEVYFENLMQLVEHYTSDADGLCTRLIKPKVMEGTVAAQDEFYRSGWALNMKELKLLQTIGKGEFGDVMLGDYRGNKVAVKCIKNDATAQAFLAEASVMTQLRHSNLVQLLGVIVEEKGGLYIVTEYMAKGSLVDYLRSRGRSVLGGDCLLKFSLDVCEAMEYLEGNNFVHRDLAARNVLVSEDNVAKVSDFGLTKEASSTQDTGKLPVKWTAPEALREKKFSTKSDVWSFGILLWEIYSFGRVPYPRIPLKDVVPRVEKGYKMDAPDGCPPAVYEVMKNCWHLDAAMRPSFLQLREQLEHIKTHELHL

SMILES	residual activity [%]
COc1cc2ncnc(Nc3ccc(O)c(Br)c3)c2cc1OC	91.6
O=C1NC(=O)c2c1c1c3ccccc3[nH]c1c1[nH]c3cc(Br)ccc3c21	100
N/C(=N\N=C/c1ccc(-c2cccc([N+](=O)[O-])c2)o1)N[N+](=O)[O-]	98.5
CCCCc1c(-c2ccc(O)cc2)[nH]c2nccnc12	78.2
O=c1c2ccccc2[nH]c(=S)n1CCN1CCC(=C(c2ccc(F)cc2)c2ccc(F)cc2)CC1	119
O=S(=O)(NCCNC/C=C/c1ccc(Br)cc1)c1cccc2cnccc12	95.6

Each compound was assayed against DSTYK (human) (UniProt Q6XUX3) in the same assay as above. Details: compound 0.5 µM; ATP 10 µM.

SMILES	residual activity [%]
COc1cc2ncnc(Nc3ccc(O)c(Br)c3)c2cc1OC	106
O=C1NC(=O)c2c1c1c3ccccc3[nH]c1c1[nH]c3cc(Br)ccc3c21	65.6
N/C(=N\N=C/c1ccc(-c2cccc([N+](=O)[O-])c2)o1)N[N+](=O)[O-]	95.4
CCCCc1c(-c2ccc(O)cc2)[nH]c2nccnc12	88.9
O=c1c2ccccc2[nH]c(=S)n1CCN1CCC(=C(c2ccc(F)cc2)c2ccc(F)cc2)CC1	86.5
O=S(=O)(NCCNC/C=C/c1ccc(Br)cc1)c1cccc2cnccc12	91.6

These compounds were tested against DYRK1B (human) (UniProt Q9Y463) in the same assay as above. Details: compound 0.5 µM; ATP 10 µM.
Chain of DYRK1B (human) (Q9Y463 whole entry, looked up): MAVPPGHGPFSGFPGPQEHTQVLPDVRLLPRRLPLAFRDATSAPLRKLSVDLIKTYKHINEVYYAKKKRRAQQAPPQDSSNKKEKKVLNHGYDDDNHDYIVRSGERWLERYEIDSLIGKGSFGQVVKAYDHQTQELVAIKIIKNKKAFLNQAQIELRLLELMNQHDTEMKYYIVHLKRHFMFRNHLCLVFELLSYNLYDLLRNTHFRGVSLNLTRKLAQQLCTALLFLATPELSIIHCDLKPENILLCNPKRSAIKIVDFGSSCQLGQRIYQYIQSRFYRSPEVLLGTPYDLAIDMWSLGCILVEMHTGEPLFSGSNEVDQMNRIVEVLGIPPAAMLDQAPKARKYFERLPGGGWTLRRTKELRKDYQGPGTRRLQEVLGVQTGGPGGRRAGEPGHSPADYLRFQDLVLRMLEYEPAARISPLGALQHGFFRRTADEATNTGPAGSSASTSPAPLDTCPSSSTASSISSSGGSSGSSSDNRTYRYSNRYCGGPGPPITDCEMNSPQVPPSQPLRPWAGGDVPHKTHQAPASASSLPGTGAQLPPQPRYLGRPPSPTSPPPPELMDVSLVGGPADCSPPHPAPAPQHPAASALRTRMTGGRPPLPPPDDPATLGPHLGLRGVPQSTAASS

SMILES	residual activity [%]
COc1cc2ncnc(Nc3ccc(O)c(Br)c3)c2cc1OC	91.3
O=C1NC(=O)c2c1c1c3ccccc3[nH]c1c1[nH]c3cc(Br)ccc3c21	82.8
N/C(=N\N=C/c1ccc(-c2cccc([N+](=O)[O-])c2)o1)N[N+](=O)[O-]	104
CCCCc1c(-c2ccc(O)cc2)[nH]c2nccnc12	73.3
O=c1c2ccccc2[nH]c(=S)n1CCN1CCC(=C(c2ccc(F)cc2)c2ccc(F)cc2)CC1	97.1
O=S(=O)(NCCNC/C=C/c1ccc(Br)cc1)c1cccc2cnccc12	95.3

Each compound was assayed against EGFR (human) (UniProt P00533) in the same assay as above. Details: compound 0.5 µM; ATP 10 µM.

SMILES	residual activity [%]
COc1cc2ncnc(Nc3ccc(O)c(Br)c3)c2cc1OC	2.22
O=C1NC(=O)c2c1c1c3ccccc3[nH]c1c1[nH]c3cc(Br)ccc3c21	100
N/C(=N\N=C/c1ccc(-c2cccc([N+](=O)[O-])c2)o1)N[N+](=O)[O-]	100
O=c1c2ccccc2[nH]c(=S)n1CCN1CCC(=C(c2ccc(F)cc2)c2ccc(F)cc2)CC1	101

The compounds below were run against EPHA7 (human) (UniProt Q15375) in the same assay as above. Details: compound 0.5 µM; ATP 10 µM.

SMILES	residual activity [%]
COc1cc2ncnc(Nc3ccc(O)c(Br)c3)c2cc1OC	46.1
O=C1NC(=O)c2c1c1c3ccccc3[nH]c1c1[nH]c3cc(Br)ccc3c21	95.3
N/C(=N\N=C/c1ccc(-c2cccc([N+](=O)[O-])c2)o1)N[N+](=O)[O-]	97.9
CCCCc1c(-c2ccc(O)cc2)[nH]c2nccnc12	89
O=c1c2ccccc2[nH]c(=S)n1CCN1CCC(=C(c2ccc(F)cc2)c2ccc(F)cc2)CC1	96.9
O=S(=O)(NCCNC/C=C/c1ccc(Br)cc1)c1cccc2cnccc12	109

Each compound was assayed against EPHB3 (human) (UniProt P54753) in the same assay as above. Details: compound 0.5 µM; ATP 10 µM.
Chain of EPHB3 (human) (P54753 whole entry, looked up): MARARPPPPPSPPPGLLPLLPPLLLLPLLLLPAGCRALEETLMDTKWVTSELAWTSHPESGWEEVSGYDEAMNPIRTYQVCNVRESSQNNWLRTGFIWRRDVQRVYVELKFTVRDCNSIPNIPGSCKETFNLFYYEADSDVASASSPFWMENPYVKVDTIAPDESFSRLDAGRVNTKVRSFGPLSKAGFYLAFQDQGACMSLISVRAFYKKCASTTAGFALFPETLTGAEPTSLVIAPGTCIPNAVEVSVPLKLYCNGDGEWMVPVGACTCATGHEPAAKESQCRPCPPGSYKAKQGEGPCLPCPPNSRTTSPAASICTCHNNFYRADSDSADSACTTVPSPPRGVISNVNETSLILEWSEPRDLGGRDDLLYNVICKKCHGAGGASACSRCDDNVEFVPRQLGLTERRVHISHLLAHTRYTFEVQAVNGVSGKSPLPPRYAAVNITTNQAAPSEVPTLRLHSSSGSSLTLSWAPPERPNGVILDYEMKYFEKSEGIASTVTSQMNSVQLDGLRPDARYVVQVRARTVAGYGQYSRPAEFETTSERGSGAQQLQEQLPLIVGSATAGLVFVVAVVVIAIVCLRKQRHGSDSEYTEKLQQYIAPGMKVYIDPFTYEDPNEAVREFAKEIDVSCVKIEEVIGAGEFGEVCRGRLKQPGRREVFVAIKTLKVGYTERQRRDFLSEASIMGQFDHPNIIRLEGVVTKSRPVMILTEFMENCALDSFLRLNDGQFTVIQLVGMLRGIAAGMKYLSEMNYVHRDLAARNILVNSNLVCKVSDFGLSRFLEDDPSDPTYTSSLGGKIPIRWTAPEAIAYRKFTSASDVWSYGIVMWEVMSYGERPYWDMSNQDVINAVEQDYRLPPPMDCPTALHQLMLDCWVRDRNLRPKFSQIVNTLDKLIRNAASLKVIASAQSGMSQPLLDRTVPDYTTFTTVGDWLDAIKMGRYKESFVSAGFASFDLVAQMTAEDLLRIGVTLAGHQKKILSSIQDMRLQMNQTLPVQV

SMILES	residual activity [%]
COc1cc2ncnc(Nc3ccc(O)c(Br)c3)c2cc1OC	88.1
O=C1NC(=O)c2c1c1c3ccccc3[nH]c1c1[nH]c3cc(Br)ccc3c21	91.9
N/C(=N\N=C/c1ccc(-c2cccc([N+](=O)[O-])c2)o1)N[N+](=O)[O-]	91.7
O=c1c2ccccc2[nH]c(=S)n1CCN1CCC(=C(c2ccc(F)cc2)c2ccc(F)cc2)CC1	92.8
O=S(=O)(NCCNC/C=C/c1ccc(Br)cc1)c1cccc2cnccc12	92.5

Each compound was assayed against IKBKE (human) (UniProt Q14164) in the same assay as above. Details: compound 0.5 µM; ATP 10 µM.
Chain of IKBKE (human) (Q14164 whole entry, looked up): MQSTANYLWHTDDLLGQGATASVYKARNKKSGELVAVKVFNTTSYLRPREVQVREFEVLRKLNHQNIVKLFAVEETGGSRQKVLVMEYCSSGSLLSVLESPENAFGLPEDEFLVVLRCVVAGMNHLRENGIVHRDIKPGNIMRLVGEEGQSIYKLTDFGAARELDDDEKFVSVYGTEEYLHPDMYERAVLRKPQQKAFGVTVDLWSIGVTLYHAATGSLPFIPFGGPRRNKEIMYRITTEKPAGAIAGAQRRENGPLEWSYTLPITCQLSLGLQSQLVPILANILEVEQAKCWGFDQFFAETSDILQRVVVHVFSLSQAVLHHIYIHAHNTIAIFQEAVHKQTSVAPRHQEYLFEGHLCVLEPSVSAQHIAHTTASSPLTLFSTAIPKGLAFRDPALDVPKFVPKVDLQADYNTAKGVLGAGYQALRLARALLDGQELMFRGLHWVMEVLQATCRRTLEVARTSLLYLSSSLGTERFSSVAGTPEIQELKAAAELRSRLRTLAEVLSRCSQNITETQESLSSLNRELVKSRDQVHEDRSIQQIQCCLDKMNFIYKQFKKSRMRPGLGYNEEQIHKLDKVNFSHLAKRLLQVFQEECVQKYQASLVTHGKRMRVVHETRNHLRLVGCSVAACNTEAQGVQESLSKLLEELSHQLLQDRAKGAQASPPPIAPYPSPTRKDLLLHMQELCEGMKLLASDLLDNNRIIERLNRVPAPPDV

SMILES	residual activity [%]
COc1cc2ncnc(Nc3ccc(O)c(Br)c3)c2cc1OC	94.6
O=C1NC(=O)c2c1c1c3ccccc3[nH]c1c1[nH]c3cc(Br)ccc3c21	83.4
N/C(=N\N=C/c1ccc(-c2cccc([N+](=O)[O-])c2)o1)N[N+](=O)[O-]	101
CCCCc1c(-c2ccc(O)cc2)[nH]c2nccnc12	88.3
O=c1c2ccccc2[nH]c(=S)n1CCN1CCC(=C(c2ccc(F)cc2)c2ccc(F)cc2)CC1	101
O=S(=O)(NCCNC/C=C/c1ccc(Br)cc1)c1cccc2cnccc12	92.3

What follows are compounds tested against JAK3 JH1 JH2 (human) (UniProt P52333) in the same assay as above. Details: compound 0.5 µM; ATP 10 µM.

SMILES	residual activity [%]
COc1cc2ncnc(Nc3ccc(O)c(Br)c3)c2cc1OC	100
O=C1NC(=O)c2c1c1c3ccccc3[nH]c1c1[nH]c3cc(Br)ccc3c21	77
N/C(=N\N=C/c1ccc(-c2cccc([N+](=O)[O-])c2)o1)N[N+](=O)[O-]	103
CCCCc1c(-c2ccc(O)cc2)[nH]c2nccnc12	92.2
O=c1c2ccccc2[nH]c(=S)n1CCN1CCC(=C(c2ccc(F)cc2)c2ccc(F)cc2)CC1	104
O=S(=O)(NCCNC/C=C/c1ccc(Br)cc1)c1cccc2cnccc12	122

Each compound was assayed against KDR (human) (UniProt P35968) in the same assay as above. Details: compound 0.5 µM; ATP 10 µM.

SMILES	residual activity [%]
COc1cc2ncnc(Nc3ccc(O)c(Br)c3)c2cc1OC	69.6
O=C1NC(=O)c2c1c1c3ccccc3[nH]c1c1[nH]c3cc(Br)ccc3c21	67.9
N/C(=N\N=C/c1ccc(-c2cccc([N+](=O)[O-])c2)o1)N[N+](=O)[O-]	96.7
CCCCc1c(-c2ccc(O)cc2)[nH]c2nccnc12	89.8
